Reference: ChEMBL document CHEMBL4715859, “Small Molecules Selectively Targeting Sigma-1 Receptor for the Treatment of Neurological Diseases” (J Med Chem, 2020)

Assays:
[1] = biological target: T1, Sigma non-opioid intracellular receptor 1 (Cavia porcellus, UniProt Q60492); test: Displacement of [3H]-(+)-pentazocine from sigma1 receptor in guinea pig brain cortex membranes incubated for 120 mins by solid scintillation counting method; format: cell membranes, Membrane
[2] = biological target: T2, Sigma intracellular receptor 2 (Rattus norvegicus, UniProt Q5U3Y7); test: Displacement of [3H]DTG from sigma2 receptor in rat liver membranes incubated for 120 mins by solid scintillation counting method; format: cell membranes, Membrane
T2 sequence (Q5U3Y7 whole entry): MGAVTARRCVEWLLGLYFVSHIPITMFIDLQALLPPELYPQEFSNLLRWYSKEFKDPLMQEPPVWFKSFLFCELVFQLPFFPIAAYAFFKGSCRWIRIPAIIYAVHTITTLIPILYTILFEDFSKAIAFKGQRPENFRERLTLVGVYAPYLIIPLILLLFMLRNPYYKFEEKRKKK

[3] = Selectivity ratio of Ki for displacement of [3H]DTG from sigma2 receptor in rat liver membranes to Ki for displacement of [3H]-(+)-pentazocine from sigma1 receptor in guinea pig brain cortex membranes; format: cell membranes
[4] = biological target: T3, Sigma non-opioid intracellular receptor 1 (Homo sapiens, UniProt Q99720); test: Binding affinity to sigma-1 receptor (unknown origin)
[5] = biological target: Sigma intracellular receptor 2 (Homo sapiens, UniProt Q5BJF2); test: Binding affinity to sigma-2 receptor (unknown origin)
[6] = biological target: Alpha-2A adrenergic receptor (Homo sapiens, UniProt P08913); test: Binding affinity to alpha 2A adrenoceptor (unknown origin)
[7] = biological target: T3, Sigma non-opioid intracellular receptor 1
[8] = biological target: T4, Sigma non-opioid intracellular receptor 1 (Rattus norvegicus, UniProt Q9R0C9); test: Displacement of [3H]-(+)-pentazocine from sigma 1 receptor in rat liver membranes incubated for 60 mins […] by radioactivity method; format: cell membranes, Membrane
[9] = biological target: T2, Sigma intracellular receptor 2; test: Displacement of [3H]DTG from sigma 2 receptor in rat liver membranes incubated for 60 mins in presence of [3H]-(+)-pentazocine by radioactivity method; format: cell membranes, Membrane
[10] = biological target: Kappa-type opioid receptor (Homo sapiens, UniProt P41145); test: Binding affinity to kappa opioid receptor (unknown origin)
[11] = biological target: Sigma non-opioid intracellular receptor 1 (Mus musculus, UniProt O55242); test: Inhibition of radioligand binding to sigma1 receptor in C57BL/6 mouse brain membranes; format: cell membranes, Membrane
[12] = biological target: Sigma intracellular receptor 2 (Mus musculus, UniProt Q8VD00); test: Inhibition of radioligand binding to sigma2 receptor in C57BL/6 mouse brain membranes; format: cell membranes, Membrane
[13] = Selectivity ratio of Ki for displacement of [3H]DTG from sigma2 receptor in rat PC12 cells to Ki for displacement of [3H]-(+)-pentazocine from sigma1 receptor in guinea pig brain homogenate; format: cell-based
[14] = biological target: T5, Sodium-dependent dopamine transporter (Homo sapiens, UniProt Q01959); test: Displacement of [3H]WIN35428 from dopamine transporter (unknown origin) by liquid scintillation counting method
[15] = biological target: T6, Sodium-dependent noradrenaline transporter (Homo sapiens, UniProt P23975); test: Displacement of [3H]nisoxetine from norepinephrine transporter (unknown origin) by liquid scintillation counting method
[16] = biological target: Sodium-dependent serotonin transporter (Homo sapiens, UniProt P31645); test: Displacement of [3H]citalopram from serotonin transporter (unknown origin) by liquid scintillation counting method
[17] = biological target: T1, Sigma non-opioid intracellular receptor 1; test: Displacement of [3H]-(+)-pentazocine from sigma 1 receptor in Dunkin guinea pig brain membranes incubated for 120 mins by scintillation counting method; format: cell membranes, Membrane
[18] = biological target: T2, Sigma intracellular receptor 2; test: Displacement of [3H]DTG from sigma2 receptor in Wistar Hannover rat liver membranes incubated for 120 mins by solid scintillation counting method; format: cell membranes, Membrane
[19] = Selectivity ratio of Ki for sigma2 receptor in Wistar Hannover rat liver membranes to Ki for sigma 1 receptor in Dunkin guinea pig brain membranes; format: cell membranes
[20] = biological target: T1, Sigma non-opioid intracellular receptor 1; test: Displacement of [3H]-(+)-pentazocine from sigma 1 receptor in guinea pig brain cortex membranes incubated for 120 mins by solid scintillation counting method; format: cell membranes, Membrane
[21] = Displacement of [3H]DTG from sigma2 receptor in guinea pig brain membranes by scintillation counting method; format: cell membranes, Cavia porcellus, Membrane
[22] = biological target: T2, Sigma intracellular receptor 2; format: cell membranes, Sprague-Dawley, Brain, Membrane
[23] = biological target: T4, Sigma non-opioid intracellular receptor 1; format: cell membranes, Sprague-Dawley, Brain, Membrane
[24] = biological target: T1, Sigma non-opioid intracellular receptor 1; test: Displacement of [3H]-(+)-pentazocine from sigma 1 receptor in Dunkin-Hartley guinea pig brain membranes incubated for 180 mins by liquid scintillation counting method; format: cell membranes, Membrane
[25] = Displacement of [3H]-dio-tolylguanidine from Sigma 2 receptor in Dunkin-Hartley guinea pig brain membrane incubated for 120 mins in presence of sigma1 blocker (+)-SKF-10047 by liquid scintillation counting method; format: cell membranes, Cavia porcellus
Cavia porcellus = species: Cavia porcellus; test: Selectivity ratio of Ki for sigma 2 receptor in Dunkin-Hartley guinea pig brain membranes to Ki for sigma 1 receptor in Dunkin-Hartley guinea pig brain membrane
Histamine H3 receptor = Histamine H3 receptor (Rattus norvegicus, UniProt Q9QYN8); test: Displacement of [3H]-methylhistamine from Histamine H3 receptor in rat cerebral cortex incubated for 30 min by liquid scintillation counting method; format: tissue-based
[26] = biological target: D(4) dopamine receptor (Homo sapiens) (UniProt P21917); test: Inhibition of radioligand binding to dopamine D4 receptor (unknown origin) at 1 uM relative to control
[27] = biological target: Histamine H2 receptor (Homo sapiens) (UniProt P25021); test: Inhibition of radioligand binding to histamine H2 receptor (unknown origin) at 1 uM relative to control
[28] = biological target: T6, Sodium-dependent noradrenaline transporter; test: Inhibition of radioligand binding to noradrenaline transporter (unknown origin) at 1 uM relative to control
[29] = biological target: T5, Sodium-dependent dopamine transporter; test: Inhibition of radioligand binding to dopamine transporter (unknown origin) at 1 uM relative to control
[30] = biological target: Muscarinic acetylcholine receptor M1 (Homo sapiens, UniProt P11229); test: Binding affinity to muscarinic acetylcholine receptor M1 (unknown origin)
[31] = biological target: Muscarinic acetylcholine receptor M2 (Homo sapiens, UniProt P08172); test: Binding affinity to muscarinic acetylcholine receptor M2 (unknown origin)
[32] = biological target: Muscarinic acetylcholine receptor M3 (Homo sapiens, UniProt P20309); test: Binding affinity to muscarinic acetylcholine receptor M3 (unknown origin)
[33] = biological target: Muscarinic acetylcholine receptor M4 (Homo sapiens, UniProt P08173); test: Binding affinity to muscarinic acetylcholine receptor M4 (unknown origin)

T3 sequence (Q99720 whole entry): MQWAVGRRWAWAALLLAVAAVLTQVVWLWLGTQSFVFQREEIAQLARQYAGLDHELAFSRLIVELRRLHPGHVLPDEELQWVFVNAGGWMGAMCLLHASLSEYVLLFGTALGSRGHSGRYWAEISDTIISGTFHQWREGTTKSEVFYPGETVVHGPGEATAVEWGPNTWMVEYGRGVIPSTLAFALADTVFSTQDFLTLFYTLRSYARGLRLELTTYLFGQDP
T1 sequence (Q60492 whole entry): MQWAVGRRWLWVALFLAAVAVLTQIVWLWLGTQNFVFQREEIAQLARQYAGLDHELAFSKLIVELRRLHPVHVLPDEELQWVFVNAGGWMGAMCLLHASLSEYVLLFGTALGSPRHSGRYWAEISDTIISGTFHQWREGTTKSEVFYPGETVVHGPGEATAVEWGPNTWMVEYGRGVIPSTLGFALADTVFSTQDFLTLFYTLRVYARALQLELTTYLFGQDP
T5 sequence (Q01959 whole entry): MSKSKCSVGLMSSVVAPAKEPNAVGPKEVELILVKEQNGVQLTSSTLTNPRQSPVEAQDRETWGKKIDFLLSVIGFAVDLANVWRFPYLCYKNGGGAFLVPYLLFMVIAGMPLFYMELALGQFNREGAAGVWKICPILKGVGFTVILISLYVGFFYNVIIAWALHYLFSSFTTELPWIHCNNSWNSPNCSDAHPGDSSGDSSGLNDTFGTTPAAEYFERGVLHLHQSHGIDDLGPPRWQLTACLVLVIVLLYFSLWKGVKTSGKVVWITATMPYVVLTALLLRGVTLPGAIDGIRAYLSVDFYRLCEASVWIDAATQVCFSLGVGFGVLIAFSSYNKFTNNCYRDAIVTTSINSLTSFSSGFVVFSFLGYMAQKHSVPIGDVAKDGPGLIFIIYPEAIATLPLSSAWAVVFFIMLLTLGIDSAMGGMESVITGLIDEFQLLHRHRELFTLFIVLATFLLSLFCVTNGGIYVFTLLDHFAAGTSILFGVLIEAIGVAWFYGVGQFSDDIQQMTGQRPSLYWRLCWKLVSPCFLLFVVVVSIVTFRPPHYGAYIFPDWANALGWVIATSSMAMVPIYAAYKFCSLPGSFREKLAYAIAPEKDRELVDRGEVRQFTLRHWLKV
Sequence of Sigma intracellular receptor 2 (Homo sapiens, UniProt Q5BJF2) (Q5BJF2 whole entry): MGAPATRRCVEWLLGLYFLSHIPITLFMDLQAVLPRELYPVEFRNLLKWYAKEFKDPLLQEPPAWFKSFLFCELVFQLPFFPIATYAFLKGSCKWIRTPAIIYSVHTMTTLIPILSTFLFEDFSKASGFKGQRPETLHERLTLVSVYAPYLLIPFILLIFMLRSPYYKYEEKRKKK
T6 sequence (P23975 whole entry): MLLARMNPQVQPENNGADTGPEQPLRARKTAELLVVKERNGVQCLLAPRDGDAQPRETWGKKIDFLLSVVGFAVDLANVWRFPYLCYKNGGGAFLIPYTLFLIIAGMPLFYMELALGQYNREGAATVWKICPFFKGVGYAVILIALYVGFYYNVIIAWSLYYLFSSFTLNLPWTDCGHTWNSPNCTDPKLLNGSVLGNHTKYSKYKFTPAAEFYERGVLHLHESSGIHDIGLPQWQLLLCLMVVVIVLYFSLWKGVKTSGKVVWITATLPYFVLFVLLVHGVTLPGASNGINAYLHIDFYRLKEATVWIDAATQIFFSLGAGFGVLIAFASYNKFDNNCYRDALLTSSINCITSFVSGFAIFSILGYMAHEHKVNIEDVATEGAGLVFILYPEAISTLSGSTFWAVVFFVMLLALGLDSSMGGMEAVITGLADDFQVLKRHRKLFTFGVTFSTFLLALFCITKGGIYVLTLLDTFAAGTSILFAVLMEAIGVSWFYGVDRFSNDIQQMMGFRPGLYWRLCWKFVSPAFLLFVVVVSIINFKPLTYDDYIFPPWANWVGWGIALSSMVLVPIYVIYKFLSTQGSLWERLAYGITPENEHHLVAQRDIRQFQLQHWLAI
T4 sequence (Q9R0C9 whole entry): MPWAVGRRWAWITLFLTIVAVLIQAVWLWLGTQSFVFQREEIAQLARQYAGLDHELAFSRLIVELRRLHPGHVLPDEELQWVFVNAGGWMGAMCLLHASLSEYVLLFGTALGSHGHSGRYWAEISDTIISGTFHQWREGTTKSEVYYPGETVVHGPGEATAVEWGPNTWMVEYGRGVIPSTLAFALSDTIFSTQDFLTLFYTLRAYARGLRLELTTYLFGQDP
Sequence of Sodium-dependent serotonin transporter (P31645 whole entry): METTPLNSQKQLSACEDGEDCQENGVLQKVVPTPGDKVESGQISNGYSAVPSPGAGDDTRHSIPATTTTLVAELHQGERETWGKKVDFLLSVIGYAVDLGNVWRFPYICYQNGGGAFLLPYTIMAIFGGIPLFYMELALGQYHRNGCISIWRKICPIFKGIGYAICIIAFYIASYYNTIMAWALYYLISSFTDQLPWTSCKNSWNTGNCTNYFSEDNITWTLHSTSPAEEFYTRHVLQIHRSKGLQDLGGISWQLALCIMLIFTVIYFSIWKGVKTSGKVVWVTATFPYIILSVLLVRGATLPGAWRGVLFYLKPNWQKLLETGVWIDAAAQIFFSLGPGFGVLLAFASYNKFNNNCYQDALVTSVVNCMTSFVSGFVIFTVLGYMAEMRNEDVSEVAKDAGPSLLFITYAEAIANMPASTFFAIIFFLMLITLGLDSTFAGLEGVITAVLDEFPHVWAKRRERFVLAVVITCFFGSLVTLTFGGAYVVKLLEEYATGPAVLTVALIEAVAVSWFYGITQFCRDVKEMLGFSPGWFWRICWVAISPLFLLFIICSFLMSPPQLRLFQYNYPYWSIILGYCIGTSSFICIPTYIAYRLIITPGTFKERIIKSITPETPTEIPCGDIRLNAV
Sequence of Histamine H2 receptor (Homo sapiens) (P25021 whole entry): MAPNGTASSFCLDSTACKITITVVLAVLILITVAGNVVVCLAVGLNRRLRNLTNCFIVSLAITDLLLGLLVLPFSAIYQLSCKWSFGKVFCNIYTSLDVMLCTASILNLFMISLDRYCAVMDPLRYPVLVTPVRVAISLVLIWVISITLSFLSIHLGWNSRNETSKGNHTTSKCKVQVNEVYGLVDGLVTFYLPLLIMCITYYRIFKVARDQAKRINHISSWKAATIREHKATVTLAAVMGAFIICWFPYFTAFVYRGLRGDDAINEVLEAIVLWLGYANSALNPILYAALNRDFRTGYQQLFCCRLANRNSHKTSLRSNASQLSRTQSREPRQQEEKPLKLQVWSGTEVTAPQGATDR
Sequence of Muscarinic acetylcholine receptor M3 (P20309 whole entry): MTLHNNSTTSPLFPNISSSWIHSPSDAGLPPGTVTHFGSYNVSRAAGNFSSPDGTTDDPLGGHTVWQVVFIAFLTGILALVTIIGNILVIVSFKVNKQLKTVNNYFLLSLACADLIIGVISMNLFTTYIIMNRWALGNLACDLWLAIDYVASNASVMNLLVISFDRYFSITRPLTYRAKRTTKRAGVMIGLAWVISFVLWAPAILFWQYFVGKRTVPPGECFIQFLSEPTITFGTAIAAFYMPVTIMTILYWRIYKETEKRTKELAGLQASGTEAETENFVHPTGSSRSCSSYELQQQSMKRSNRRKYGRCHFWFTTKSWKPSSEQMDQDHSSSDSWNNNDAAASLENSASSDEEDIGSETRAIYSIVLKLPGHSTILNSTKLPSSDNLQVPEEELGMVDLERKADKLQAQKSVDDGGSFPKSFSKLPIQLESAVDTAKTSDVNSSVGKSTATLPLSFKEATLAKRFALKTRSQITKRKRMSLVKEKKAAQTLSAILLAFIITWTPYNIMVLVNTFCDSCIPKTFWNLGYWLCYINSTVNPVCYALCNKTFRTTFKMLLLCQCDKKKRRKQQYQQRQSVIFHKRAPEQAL
Sequence of D(4) dopamine receptor (Homo sapiens) (P21917 whole entry): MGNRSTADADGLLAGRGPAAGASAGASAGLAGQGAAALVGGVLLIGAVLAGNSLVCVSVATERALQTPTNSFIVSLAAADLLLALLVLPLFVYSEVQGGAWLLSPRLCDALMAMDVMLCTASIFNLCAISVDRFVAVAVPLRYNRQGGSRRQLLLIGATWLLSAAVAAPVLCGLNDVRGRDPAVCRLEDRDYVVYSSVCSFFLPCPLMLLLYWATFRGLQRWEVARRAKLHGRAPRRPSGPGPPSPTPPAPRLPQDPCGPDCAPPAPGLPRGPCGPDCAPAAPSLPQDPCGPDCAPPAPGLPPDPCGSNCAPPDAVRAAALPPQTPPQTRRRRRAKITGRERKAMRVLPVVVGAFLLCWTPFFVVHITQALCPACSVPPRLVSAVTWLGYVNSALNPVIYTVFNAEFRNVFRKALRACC
Sequence of Alpha-2A adrenergic receptor (P08913 whole entry): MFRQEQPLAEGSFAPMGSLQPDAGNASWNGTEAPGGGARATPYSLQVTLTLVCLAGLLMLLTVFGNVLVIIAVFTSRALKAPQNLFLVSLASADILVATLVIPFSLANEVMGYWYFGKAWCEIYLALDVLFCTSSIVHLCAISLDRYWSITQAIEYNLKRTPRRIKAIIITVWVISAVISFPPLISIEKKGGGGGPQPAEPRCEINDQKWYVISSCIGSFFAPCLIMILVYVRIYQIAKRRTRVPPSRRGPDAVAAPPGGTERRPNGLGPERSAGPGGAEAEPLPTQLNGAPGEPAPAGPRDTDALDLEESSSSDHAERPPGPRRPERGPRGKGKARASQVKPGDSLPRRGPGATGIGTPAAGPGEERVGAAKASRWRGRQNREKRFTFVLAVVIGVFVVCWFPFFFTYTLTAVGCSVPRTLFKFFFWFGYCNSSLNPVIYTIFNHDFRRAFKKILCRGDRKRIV
Sequence of Sigma intracellular receptor 2 (Mus musculus, UniProt Q8VD00) (Q8VD00 whole entry): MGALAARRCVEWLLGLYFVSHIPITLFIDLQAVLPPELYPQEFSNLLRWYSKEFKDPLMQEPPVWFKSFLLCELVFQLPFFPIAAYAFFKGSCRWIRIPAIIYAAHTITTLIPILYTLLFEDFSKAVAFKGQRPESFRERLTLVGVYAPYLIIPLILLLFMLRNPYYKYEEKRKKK

With `c1ccc(CO[C@H](c2ccccc2)[C@H]2CCN(Cc3ccccc3)Cc3ccccc32)cc1` the Ki [1] was 9 nM, the Ki [2] was 668 nM and the Ratio Ki [3] was greater than 52.
`C=C1CCN2Cc3ccc(OC)cc3[C@H]3CCCC[C@]32C1` showed a Ki [4] of 8 nM, a Ki [5] of 152 nM and a Ki [6] of 531 nM.
In the case of `CCCN1CCC(c2cccc(S(C)(=O)=O)c2)CC1` [PRIDOPIDINE], the Ki [7] is reported as 81.7 nM.
With `c1ccc(CN2CCC3(CCc4ccccc4S3)CC2)cc1` the Ki [8] was 0.5 nM and the Ki [9] was 416 nM.
Compound `CC(C)=CCN1CCC2(C)c3cc(O)ccc3CC1C2C` (configuration not stated) [PENTAZOCINE] has a Ki [10] of 2.2 nM.
`CCOC1(c2ncc(-c3cccnc3)s2)CCN(Cc2ccccc2)CC1` showed a Ki [1] of 1.3 nM, a Ki [2] of 2130 nM and a Ratio Ki [3] greater than 1500.
`C#CCN(C)CCCOc1ccc(Cl)cc1Cl` [CLORGILINE] showed a Ki [11] of 2.9 nM and a Ki [12] of 505 nM.
`c1ccc(OCc2cc(OCCNC3CCC3)no2)cc1` gave a Ratio Ki [13] of 990, a Ki [14] greater than 7 µM and a Ki [15] greater than 7 µM. It also gave a Ki [16] greater than 7 µM.
In the case of `COc1ccc2c(CCCCN3C4CCCC3CCC4)cccc2c1`, the Ki [17] is reported as 1.03 nM, the Ki [18] is reported as 226 nM and the Ratio Ki [19] is reported as 317.
`O=C(COc1ccc(Cl)c(Cl)c1)NCCN1CCOCC1` gave a Ki [2] of 1500 nM and a Ki [20] of 42 nM.
Work on `COc1ccc(CCN2CCN(CCCc3ccccc3)CC2)cc1OC` [[11C]SA4503] yielded an IC50 [21] of 1800 nM.
Work on `c1ccc(CC2CCN(CC3CCCCC3)Cc3ccccc32)cc1` (configuration not stated) yielded a Ki [1] of 2.4 nM, a Ki [2] of 125 nM and a Ratio Ki [3] greater than 52.
Compound `CN(C)CCCN1c2ccccc2CCc2ccccc21` [IMIPRAMINE] has a Ki [22] of 2.11 µM and a Ki [23] of 343 nM.
With `CCOC1(c2ncc(-c3ccncc3)s2)CCN(Cc2ccccc2)CC1` the Ki [1] was 1.9 nM, the Ki [2] was 3600 nM and the Ratio Ki [3] was greater than 1500.
Compound `Clc1ccc(-c2noc(CCCCN3CCOCC3)n2)c(Cl)c1` has a Ki [24] of 0.28 nM, a Ki [25] of 164 nM and a Ratio Ki (Cavia porcellus) of 587. The Ki (Histamine H3 receptor) was 23.2 nM.
Compound `CNCCC(Oc1ccc(C(F)(F)F)cc1)c1ccccc1` (configuration not stated) [FLUOXETINE] has a Ki [22] of 16.1 µM.
Compound `Fc1ccc(CN2CCC(Cc3ccccc3)c3ccccc3C2)cc1` (configuration not stated) has a Ki [1] of 7.1 nM, a Ki [2] of 889 nM and a Ratio Ki [3] greater than 52. The inhibition [26] was 91%, the inhibition [27] was 59% and the inhibition [28] was 71%. For the same compound, the inhibition [29] was 85%.
For `CCN(CC)CCOCCOC(=O)C1(c2ccccc2)CCCC1` [CARBETAPENTANE], the Ki [4] was 129 nM and the Ki [5] was 1950 nM.
With `CN(C)CC1CCOC1(c1ccccc1)c1ccccc1` (configuration not stated) [BLARCAMESINE] the IC50 [4] was 860 nM, the IC50 [30] was 3.3 µM and the IC50 [31] was 3.3 µM. It also gave an IC50 [32] of 3.3 µM and an IC50 [33] of 3.3 µM.
